By inhibition is commonly meant the relative decrease from the control value, in per cent. As usually defined, the IC50 is the concentration that inhibits the measured activity by half.

This test deals with T1, PDGF-receptor beta enzyme comprising the tyrosine kinase domain (Homo sapiens, UniProt P09619).
T1 construct: from amino acid 545 to 1106 of GenBank Access NO: AAA36427
Put plainly: Inhibition of PDGF-receptor kinase activity (cell-free, PLC1 peptide, 33P Flashplate). The following applies: for inhibition at 10 µM: PDGF-R kinase activity, compound at 10 uM, read-out: Percent Inhibition @ 10 uM; for IC50: read-out: IC50 (μM) on PDGF-R kinase activity. In kind it is biochemical. Put shortly: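 The IC50 is the inhibitor level halving kinase activity relative to inhibitor-free wells, measured as 33P captured on a streptavidin-bound biotin-PLC1 peptide. The reaction ran 60 min at 30 °C in pH 8 Tris buffer with 1 mM DTT, 5 μM ATP and the 545–1106 kinase-domain enzyme.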

T1 sequence (P09619 545-1106): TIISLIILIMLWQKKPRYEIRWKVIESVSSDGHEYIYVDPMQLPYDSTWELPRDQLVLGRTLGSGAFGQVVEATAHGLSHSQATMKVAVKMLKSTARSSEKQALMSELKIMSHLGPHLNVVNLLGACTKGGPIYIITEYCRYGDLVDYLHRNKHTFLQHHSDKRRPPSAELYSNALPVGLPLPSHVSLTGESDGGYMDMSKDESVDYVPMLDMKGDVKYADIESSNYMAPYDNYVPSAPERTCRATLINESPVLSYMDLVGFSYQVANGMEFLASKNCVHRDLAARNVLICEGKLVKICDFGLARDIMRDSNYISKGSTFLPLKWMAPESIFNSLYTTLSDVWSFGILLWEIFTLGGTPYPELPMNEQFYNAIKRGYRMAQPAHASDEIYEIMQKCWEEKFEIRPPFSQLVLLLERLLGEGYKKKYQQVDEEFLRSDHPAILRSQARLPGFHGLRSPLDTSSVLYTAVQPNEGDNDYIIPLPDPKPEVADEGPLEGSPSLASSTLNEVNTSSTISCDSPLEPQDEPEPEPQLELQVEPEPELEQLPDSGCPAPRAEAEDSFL

On to `COc1cc2c(cc1OC)-c1n[nH]c(Nc3cccc(C(=O)NCCOCCOCCOCCNC(=O)CCCCC4SCC5NC(=O)NC54)c3)c1C2` (centres unmarked) [Compound 601, 3-(6,7-Dimethoxy-2,4-dihydro-indeno[1,2-c]pyrazol-3-ylamino)-N-{2-[2-(2-{2-[5-(2-oxo-hexahydro-thieno[3,4-d]imidazol-6-yl)-pentanoylamino]-ethoxy}-ethoxy)-ethoxy]-ethyl}-benzamide], for which the inhibition at 10 µM came out at 89% and the half-inhibitory concentration (IC50) turned out to be 2.29 µM.

For the molecule `COC(=O)Cn1nc2c(c1Nc1cccc(F)c1)Cc1cc(OC)c(OC)cc1-2` [Compound 602, [3-(3-Fluoro-phenylamino)-6,7-dimethoxy-4H-indeno[1,2-c]pyrazol-2-yl]-acetic acid methyl ester], the inhibition at 10 µM amounted to 40%.

As for `COc1cc2c(cc1OC)-c1nn(C(=O)NCCOCCOCCO)c(Nc3cccc(F)c3)c1C2` [Compound 604, 3-(3-Fluoro-phenylamino)-6,7-dimethoxy-4H-indeno[1,2-c]pyrazole-2-carboxylic acid {2-[2-(2-hydroxy-ethoxy)-ethoxy]-ethyl}-amide], the inhibition at 10 µM turned out to be 79.5% and the IC50 came out at 2.13 µM.

In the case of `COc1cc2c(c3nc(C)oc13)CC1C(Nc3cccc(F)c3)=NN=C21` (centres unmarked) [Compound 605, (3-Fluoro-phenyl)-(4-methoxy-2-methyl-7,9-dihydro-3-oxa-1,6,7-triaza-cyclopenta[b]-as-indacen-8-yl)-amine], the inhibition at 10 µM stood at 97.5% and the IC50 was 0.0051 µM.

As to `COc1cc2c(c(Cc3ccccc3)c1O)-c1n[nH]c(Nc3cccc(F)c3)c1C2` [Compound 606, 8-Benzyl-3-(3-fluoro-phenylamino)-6-methoxy-2,4-dihydro-indeno[1,2-c]pyrazol-7-ol], the inhibition at 10 µM stood at 53.5%.

As to `COc1cc2c(cc1O)-c1n[nH]c(Nc3cccc(F)c3)c1C2` [Compound 608, 3-(3-Fluoro-phenylamino)-6-methoxy-2,4-dihydro-indeno[1,2-c]pyrazol-7-ol], the inhibition at 10 µM is 106% and the IC50 stood at 0.026 µM.

For `COc1cc2c(cc1OC)-c1c(c(Nc3cccc(F)c3)nn1C)C2` [Compound 609], the inhibition at 10 µM was determined as 84% and the IC50 was 4.68 µM.

Turning to `COc1cc2c(cc1OC)-c1nn(C)c(Nc3cccc(F)c3)c1C2` [Compound 610, (6,7-dimethoxy-2-methyl-1,4-dihydro-indeno[1,2-c]pyrazole-3-yl)-(3-fluoro-phenyl)-amine], the inhibition at 10 µM is 51.5% and the IC50 turned out to be 9.38 µM.

The record behind these values is US7196110B2, “N-substituted tricyclic 3-aminopyrazoles as inhibitors for the treatment of cell proliferative disorders” (Janssen Phamaceutica N.V., priority 2002, dated 2007).
